Holding throughout (test): Antibacterial growth inhibition in phenol red dextrose broth
What all share (assay type): cell-based

In one assay the test system is Erysipelothrix insidiosa. Particulars: Erysipelothrix rhusiopathiae, 168 h; E. ins.; tested at 100, 10, 1 μg/ml; read-out: Concentration in μ g for 100% Growth Inhibition. As to the method:
(§1) The tests on bacteria were performed on cultures on phenol red dextrose broth medium (Difco). By using decimal dilution techniques described for the tests for antifungal activity, test media containing 100 μg, 10 μg and 1 μg of imidazolium salt per milliliter of medium were obtained. The inoculum consisted of a platinum loop (5 mm diameter) from a 24 hour broth culture. Forty-eight hours after incubation, subcultures were made from each culture for the determination of antibacterial activity of the imidazolium salts. After seven days of incubation, observations were made to determine the presence or absence of bacterial growth.

The next assay relates to Escherichia coli. Particulars: 168 h, E. coli, tested at 100, 10, 1 μg/ml, read-out: Concentration in μ g for 100% Growth Inhibition. The method, then: as §1
The next assay has as its system Pseudomonas aeruginosa. As to conditions: 168 h, Ps. aer., read-out: Concentration in μ g for 100% Growth Inhibition. As to the method: as §1
Assay [1] relates to Salmonella pullorum gallinarum. Particulars: Salmonella enterica, 168 h; Sp. G.; tested at 100, 10, 1 μg/ml; read-out: Concentration in μ g for 100% Growth Inhibition. The method, then:
as §1

Assay [2] concerns Staphylococcus hemolyticus. As to conditions: 168 h, Staph., tested at 100, 10, 1 μg/ml, read-out: Concentration in μ g for 100% Growth Inhibition. The method, then:
as §1

A further assay has as its system Streptococcus pyogenes. Particulars: 168 h, Strep., tested at 100, 10, 1 μg/ml, read-out: Concentration in μ g for 100% Growth Inhibition. As to the method:
as §1

Each structure is given as a SMILES string. Where two headings read alike, the source gives them in different places. Bounds are passed on as bounds.

On to `Clc1ccc(COC(C[n+]2ccn(CCNc3c(Cl)cccc3Cl)c2)c2ccc(Cl)cc2Cl)c(Cl)c1.O.[Br-]` (stereo not drawn) [(CH2)2NHC6H32,6(Cl)2, 1-[2-(2,6-Dichloroanilino)ethyl]-3-[2,4-dichloro-β-(2,4-dichlorobenzyloxy)phenethyl]imidazolium bromide hydrate], for which the MIC with Erysipelothrix insidiosa was 1 µg/mL; with Escherichia coli, 10 µg/mL; in the assay on Pseudomonas aeruginosa (tested at 100, 10, 1 μg/ml) it was 100 µg/mL; in assay [1], 10 µg/mL; in assay [2] it was 1 µg/mL; in the assay with Streptococcus pyogenes it was 1 µg/mL.

In the case of `CCCCOC(Cn1cc[n+](CC(=O)Nc2ccc(F)cc2)c1)c1ccccc1Cl` (stereo not drawn) [C6H4oCl/nC4H9/CH2CONHC6H4pF], the MIC in the assay on Erysipelothrix insidiosa came to 10 µg/mL; in the assay on Escherichia coli, 100 µg/mL; in the assay with Pseudomonas aeruginosa (tested at 100, 10, 1 μg/ml), 100 µg/mL; in assay [1], 100 µg/mL; in assay [2], 100 µg/mL; with Streptococcus pyogenes, 10 µg/mL.

Take `Cc1ccccc1NC(=O)C[n+]1ccn(CC(OCc2ccc(Cl)cc2)c2ccc(Cl)cc2)c1` (stereo not drawn) [C6H4pCl/CH2C6H4pCl/CH2CONHC6H4oCH3, 1-[p-Chloro-β-(p-chlorobenzyloxy)phenethyl]-3-(N-o-toylcarbamoylmethyl)imidazolium chloride]: the MIC in the assay on Erysipelothrix insidiosa came out at 10 µg/mL; in the assay on Escherichia coli, 100 µg/mL; with Pseudomonas aeruginosa (tested at 100, 10, 1 μg/ml) it was 100 µg/mL; in assay [1], 100 µg/mL; in assay [2], 10 µg/mL; with Streptococcus pyogenes it was 10 µg/mL.

Turning to `Cc1ccccc1NC(=O)C[n+]1ccn(CC(OCc2ccc(Cl)cc2Cl)c2ccc(Cl)cc2)c1` (stereo not drawn) [C6H4pCl/CH2C6H32,4(Cl)2/CH2CONHC6H4oCH3, 1-[p-Chloro-β-(2,4-dichlorobenzyloxy)phenethyl]-3-(N-o-tolylcarbamoylmethyl)imidazolium chloride hydrate], the MIC in the assay with Erysipelothrix insidiosa was determined as 1 µg/mL; in the assay with Escherichia coli, 100 µg/mL; in the assay on Pseudomonas aeruginosa (tested at 100, 10, 1 μg/ml) it was 100 µg/mL; in assay [1] it was 10 µg/mL; in assay [2], 100 µg/mL; with Streptococcus pyogenes it was 1 µg/mL.

`O=C(C[n+]1ccn(CC(OCc2ccc(Cl)cc2Cl)c2ccc(Cl)cc2)c1)Nc1ccc(F)cc1` (stereo not drawn) [C6H4pCl/CH2C6H32,4(Cl)2/CH2CONHC6H4pF, 1-[p-chloro-β-(2,4-dichlorobenzyloxy)phenethyl]-3-[N-(p-fluorophenyl)carbamoyl-methyl]imidazolium chloride]: the MIC turned out to be 1 µg/mL in the assay on Erysipelothrix insidiosa; 10 µg/mL in the assay with Escherichia coli; 100 µg/mL with Pseudomonas aeruginosa (tested at 100, 10, 1 μg/ml); 10 µg/mL in assay [1]; 10 µg/mL in assay [2]; 1 µg/mL in the assay on Streptococcus pyogenes.

As for `Clc1ccc(COC(C[n+]2ccn(Cc3ccccc3)c2)c2ccccc2)cc1.[Br-]` (stereo not drawn) [C6H5/CH2C6H4pCl/CH2C6H5, 1-Benzyl-3-[β-(p-chlorobenzyloxy)phenethyl]imidazolium bromide], the MIC was 100 µg/mL in the assay with Erysipelothrix insidiosa; 100 µg/mL with Escherichia coli; greater than 100 µg/mL in the assay with Pseudomonas aeruginosa (growth observed at 100 μg/ml); 100 µg/mL in assay [1]; 10 µg/mL in assay [2]; 10 µg/mL in the assay on Streptococcus pyogenes.

Turning to `Cc1ccc(C[n+]2ccn(CC(OCc3ccc(Cl)cc3Cl)c3ccc(Cl)cc3Cl)c2)cc1.[Br-]` (stereo not drawn) [CH2C6H4pCH3, 1-[2,4-Dichloro-β-(2,4-dichlorobenzyloxy)phenethyl]-3-(p-methylbenzyl)imidazolium bromide], the MIC was 10 µg/mL in the assay with Erysipelothrix insidiosa; 10 µg/mL in the assay with Escherichia coli; 100 µg/mL with Pseudomonas aeruginosa (tested at 100, 10, 1 μg/ml); 100 µg/mL in assay [1]; 1 µg/mL in assay [2]; 1 µg/mL in the assay with Streptococcus pyogenes.

With `Fc1ccc(C[n+]2ccn(CC(OCc3ccc(Cl)cc3Cl)c3ccc(Cl)cc3Cl)c2)cc1.[I-]` (stereo not drawn) [CH2C6H4pF, 1-[2,4-Dichloro-β-(2,4-dichlorobenzyloxy)phenethyl]-3-(p-fluorobenzyl)-imidazolium iodide], the MIC turned out to be 10 µg/mL with Erysipelothrix insidiosa; 100 µg/mL in the assay on Escherichia coli; 100 µg/mL in the assay with Pseudomonas aeruginosa (tested at 100, 10, 1 μg/ml); 10 µg/mL in assay [1]; 1 µg/mL in assay [2]; 1 µg/mL in the assay with Streptococcus pyogenes.

As to `OC(Cn1cc[n+](CC(OCc2ccc(Cl)cc2Cl)c2ccc(Cl)cc2Cl)c1)c1ccc(Cl)cc1.[Br-]` (stereo not drawn) [CH2CHOHC6H4pCl, 1-(p-chloro-β-hydroxyphenethyl)-3-[2,4-dichloro-β-(2,4-dichlorobenzyloxy)phenethyl]imidazolium bromide], the MIC amounted to 1 µg/mL with Erysipelothrix insidiosa; 10 µg/mL in the assay with Escherichia coli; 100 µg/mL in the assay with Pseudomonas aeruginosa (tested at 100, 10, 1 μg/ml); 10 µg/mL in assay [1]; 1 µg/mL in assay [2]; 1 µg/mL in the assay on Streptococcus pyogenes.

In the case of `COc1ccccc1NC(=O)C[n+]1ccn(CC(OCc2ccc(Cl)cc2Cl)c2ccc(Cl)cc2Cl)c1` (stereo not drawn) [CH2CONHC6H4oOCH3, 1-[2,4-dichloro-β-(2,4-dichlorobenzyloxy)phenethyl]-3-[N-(o-methoxyphenyl)carbamoylmethyl]imidazolium chloride hydrate], the MIC was 1 µg/mL in the assay with Erysipelothrix insidiosa; 10 µg/mL in the assay with Escherichia coli; 100 µg/mL in the assay on Pseudomonas aeruginosa (tested at 100, 10, 1 μg/ml); 10 µg/mL in assay [1]; 1 µg/mL in assay [2]; 1 µg/mL in the assay with Streptococcus pyogenes.

With `O=C(C[n+]1ccn(CC(OCc2ccc(Cl)cc2Cl)c2ccc(Cl)cc2Cl)c1)Nc1ccc(Cl)cc1` (stereo not drawn) [CH2CONHC6H4p(Cl), 1-[N-(p-chlorophenyl)carbamoylmethyl]-3-[2,4-dichloro-β-(2,4-dichlorobenzyloxy)phenethyl]imidazolium chloride hydrate], the MIC in the assay on Erysipelothrix insidiosa worked out at 1 µg/mL; with Escherichia coli, 10 µg/mL; in the assay with Pseudomonas aeruginosa (tested at 100, 10, 1 μg/ml) it was 100 µg/mL; in assay [1], 100 µg/mL; in assay [2], 10 µg/mL; in the assay with Streptococcus pyogenes it was 1 µg/mL.

Take `O=C(C[n+]1ccn(CC(OCc2ccc(Cl)cc2Cl)c2ccc(Cl)cc2Cl)c1)Nc1ccc(F)cc1` (stereo not drawn) [CH2CONHC6H4pF, 1-[2,4-dichloro-β-(2,4-dichlorobenzyloxy)phenethyl]-3-[N-(p-fluorophenyl)carbamoylmethyl]imidazolium chloride]: the MIC was 1 µg/mL in the assay with Erysipelothrix insidiosa; 10 µg/mL in the assay on Escherichia coli; 100 µg/mL with Pseudomonas aeruginosa (tested at 100, 10, 1 μg/ml); 10 µg/mL in assay [1]; 1 µg/mL in assay [2]; 1 µg/mL in the assay with Streptococcus pyogenes.

Regarding `COc1ccc(NC(=O)C[n+]2ccn(CC(OCc3ccc(Cl)cc3Cl)c3ccc(Cl)cc3Cl)c2)cc1` (stereo not drawn) [CH2CONHC6H4pOCH3], the MIC in the assay on Erysipelothrix insidiosa came out at 1 µg/mL; with Escherichia coli, 10 µg/mL; in the assay on Pseudomonas aeruginosa (tested at 100, 10, 1 μg/ml), 100 µg/mL; in assay [1], 10 µg/mL; in assay [2] it was 1 µg/mL; with Streptococcus pyogenes, 1 µg/mL.

As to `Cc1ccc(CNC(=O)C[n+]2ccn(CC(OCc3ccc(Cl)cc3Cl)c3ccc(Cl)cc3Cl)c2)cc1` (stereo not drawn) [CH2CONHCH2C6H4pCH3, 1-[2,4-Dichloro-β-(2,4-dichlorobenzyloxy)phenethyl]-3-[N-(p-methylbenzyl)carbamoylmethyl]imidazolium chloride], the MIC in the assay on Erysipelothrix insidiosa worked out at 10 µg/mL; in the assay on Escherichia coli, 10 µg/mL; in the assay with Pseudomonas aeruginosa (tested at 100, 10, 1 μg/ml), 100 µg/mL; in assay [1], 10 µg/mL; in assay [2], 10 µg/mL; with Streptococcus pyogenes, 10 µg/mL.

With `CC(C(=O)Nc1cccc(Cl)c1)[n+]1ccn(CC(OCc2ccc(Cl)cc2Cl)c2ccc(Cl)cc2Cl)c1` (stereo not drawn) [CH(CH3)CONHC6H4mCl, 1-{1-[N-(m-Chlorophenyl)carbamoyl]ethyl 56-3-[2,4-dichloro-β-(2,4-dichlorobenzyloxy)phenethyl]imidazolium bromide], the MIC with Erysipelothrix insidiosa stood at 1 µg/mL; in the assay with Escherichia coli it was 100 µg/mL; with Pseudomonas aeruginosa (tested at 100, 10, 1 μg/ml), 100 µg/mL; in assay [1], 100 µg/mL; in assay [2], 1 µg/mL; in the assay with Streptococcus pyogenes, 1 µg/mL.

For `Fc1ccc(C(c2ccc(Cl)cc2)[n+]2ccn(CC(OCc3ccc(Cl)cc3Cl)c3ccc(Cl)cc3Cl)c2)cc1` (stereo not drawn) [drawing 69], the MIC came to 1 µg/mL in the assay on Erysipelothrix insidiosa; 100 µg/mL in the assay on Escherichia coli; 100 µg/mL with Pseudomonas aeruginosa (tested at 100, 10, 1 μg/ml); 100 µg/mL in assay [1]; 1 µg/mL in assay [2]; 1 µg/mL in the assay with Streptococcus pyogenes.

These data come from US3991202A, “Imidazolium salts” (Janssen Pharmaceutica N.V., priority 1974, dated 1976).
